Measurements taken from patent publication US20100092480A1, “MODULATORS OF PROTEIN PHOSPHATASE 2A” (priority 2006, published 2010).
Starred links: 1 amine or outer side, 2 acyl side, 3 side chain; linkers in the order of their positions; H or OH if unused. Positions of bridges follow the written chain, without caps; N, C: chain ends. Non-standard residues stand in square brackets, D forms with d. Residues, ends and D or L forms follow the SMILES beside them. Adda = CO[C@@H](Cc1ccccc1)[C@@H](C)/C=C(C)/C=C/[C@H](N[*:1])[C@H](C)C(=O)[*:2]; dAsp(3S-Me) = C[C@H](C(=O)[*:3])[C@@H](N[*:1])C(=O)[*:2]; d(γGlu) = O=C(O)[C@@H](CCC(=O)[*:2])N[*:1]; NMeDha = C=C(NC)C(=O)O

Columns and labels:
PP2A = PP2A (Homo sapiens, UniProt P67775); settings: cited from earlier work
Chain of PP2A (P67775 whole entry): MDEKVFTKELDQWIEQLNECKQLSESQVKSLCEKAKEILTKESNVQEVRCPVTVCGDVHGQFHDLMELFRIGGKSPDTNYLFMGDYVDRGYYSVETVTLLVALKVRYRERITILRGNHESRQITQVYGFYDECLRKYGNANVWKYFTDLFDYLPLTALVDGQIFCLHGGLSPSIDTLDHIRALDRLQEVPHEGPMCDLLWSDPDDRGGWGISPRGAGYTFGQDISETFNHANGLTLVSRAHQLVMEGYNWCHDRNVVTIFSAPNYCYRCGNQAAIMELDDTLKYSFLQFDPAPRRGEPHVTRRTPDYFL

PP2A core = PP2A core (Homo sapiens, UniProt P67775); assay type: biochemical; settings: stoichiometric amounts of inhibitor
Chain of PP2A core (P67775 whole entry): as above
Chain of PP2A core (P30153 whole entry, further chain): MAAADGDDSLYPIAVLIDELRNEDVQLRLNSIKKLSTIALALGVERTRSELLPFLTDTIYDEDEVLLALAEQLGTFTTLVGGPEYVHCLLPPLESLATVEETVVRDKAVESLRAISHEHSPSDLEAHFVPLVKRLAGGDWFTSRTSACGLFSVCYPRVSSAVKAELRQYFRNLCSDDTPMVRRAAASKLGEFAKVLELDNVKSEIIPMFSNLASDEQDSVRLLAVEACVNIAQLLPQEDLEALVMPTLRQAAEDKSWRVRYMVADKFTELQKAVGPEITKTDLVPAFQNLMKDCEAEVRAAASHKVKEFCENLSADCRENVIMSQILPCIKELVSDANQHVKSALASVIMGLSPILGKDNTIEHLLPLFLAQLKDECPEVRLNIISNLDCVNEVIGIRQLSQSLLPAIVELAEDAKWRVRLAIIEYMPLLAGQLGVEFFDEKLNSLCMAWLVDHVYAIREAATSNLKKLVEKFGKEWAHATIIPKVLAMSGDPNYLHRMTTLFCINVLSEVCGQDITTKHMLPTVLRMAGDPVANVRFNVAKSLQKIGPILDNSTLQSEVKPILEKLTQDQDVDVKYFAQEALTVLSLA

Structure (SMILES)	inhibition of the activity of PP2A (PP2A)	inhibition of phosphatase activity of the assembled, purified PP2A core (PP2A core)	IC50 (PP2A; PP2A, read-out: inhibitory constant (IC50)) [nM]
C=C1C(=O)N[C@H](C)C(=O)N[C@@H](CC(C)C)C(=O)N[C@@H](C(=O)O)[C@H](C)C(=O)N[C@@H](CCCNC(=N)N)C(=O)N[C@@H](/C=C/C(C)=C/[C@H](C)[C@H](Cc2ccccc2)OC)[C@H](C)C(=O)N[C@@H](C(=O)O)CCC(=O)N1C [MCLR, microcystin-LR] (R[Adda][d(γGlu)][NMeDha][dA]L[dAsp(3S-Me)]-OH; lactam N-7)	potently inhibit		
C=C1[C@@H](O)[C@@H]2O[C@]3(CC[C@H](/C=C/[C@@H](C)[C@@H]4CC(C)=C[C@@]5(O[C@H](C[C@@](C)(O)C(=O)O)CC[C@H]5O)O4)O3)CC[C@H]2O[C@@H]1[C@@H](O)C[C@H](C)[C@H]1O[C@@]2(CCCCO2)CC[C@H]1C [OA, okadaic acid]		efficiently inhibited	~0.1
